Assay [1] deals with Colletotrichum lindemuthianum. The assay can be described thus: In vivo preventive test on Colletotrichum lindemuthianum (leaf spot on bean). The conditions noted are these: 168 h, 500 ppm of active ingredient, preventive spray on bean, evaluated 7 days after inoculation, read-out: efficacy. In outline: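 Young bean plants sprayed with compound in DMSO/acetone/Tween 80 diluted in water; solvent-only controls. Inoculated 24 h later with C. lindemuthianum spore suspension, then kept 24 h at 20 °C/100% RH and 6 days at 20 °C/90% RH.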

The test system of a further assay is Pyrenophora teres. The assay can be described thus: In vivo preventive test on Pyrenophora teres (net blotch on barley). As to conditions: 240 h, 500 ppm of active ingredient, preventive spray on barley, evaluated 10 days after inoculation, read-out: efficacy. Put shortly:
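Net blotch spores were sprayed onto barley leaves one day after foliar treatment with water-diluted DMSO/acetone/Tween 80 formulations (solvent-only controls). Plants were kept at 20° C: first 48 hours at 100% relative humidity, then 8 days at 70-80%.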

Another assay has as its system Botrytis cinerea. The assay can be described thus: In vivo preventive test on Botrytis cinerea (grey mould). As to conditions: 500 ppm of active ingredient, preventive spray on gherkin or cabbage, evaluated 4 to 5 days after inoculation, read-out: efficacy. Put shortly:
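Preventive spray on cabbage or gherkin seedlings, with compound formulated in DMSO/acetone/Tween 80 and water-diluted, preceded spore inoculation by 24 hours. Cabbage was held 4 to 5 days at 20° C., 100% relative humidity; gherkin 4 to 5 days at 17° C., 90% relative humidity.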

For `O=C(NC[C@H](F)c1ccc(Cl)cc1Cl)c1c(Oc2cccc(C(F)(F)F)c2)cnc2ccoc12` (racemic) [I-067], the pest or weed control at 500 ppm in assay [1] lay in the range of 90 to 100%; in the assay on Pyrenophora teres, 80 to 89%; in the assay with Botrytis cinerea, 90 to 100%.

On to `O=C(NC[C@H](F)c1ccc(Cl)cc1Cl)c1c(Oc2cccc(C3CC3)c2F)nnc2ccccc12` (racemic) [I-072], for which the pest or weed control at 500 ppm (in assay [1]; in the assay with Pyrenophora teres; in the assay with Botrytis cinerea) was 90 to 100% in each case.

For the compound `Cc1ccc([C@@H](F)CNC(=O)c2c(Oc3cccc(C(F)(F)F)c3)nnc3ccccc23)cc1C` (racemic) [I-084], the pest or weed control at 500 ppm (in assay [1]; in the assay on Pyrenophora teres; with Botrytis cinerea) was 90 to 100% each time.

Turning to `Cc1ccc(CCNC(=O)c2c(Oc3cccc(C4CC4)c3F)nnc3ccccc23)c(C)c1` [I-070], the pest or weed control at 500 ppm (in assay [1]; in the assay with Pyrenophora teres; with Botrytis cinerea) was 90 to 100% each time.

For the compound `Cc1ccc(C(F)(F)CNC(=O)c2c(Oc3cccc(C4CC4)c3F)nnc3ccccc23)c(C)c1` [I-071, 3-(3-cyclopropyl-2-fluoro-phenoxy)-N-[2-(2,4-dimethyl-phenyl)-2,2-difluoro-ethyl]cinnoline-4-carboxamide], the pest or weed control at 500 ppm (in assay [1]; in the assay with Pyrenophora teres; with Botrytis cinerea) was 90 to 100% throughout.

For the compound `O=C(NCC(F)c1ccc(Cl)cc1Cl)c1c(Oc2cccc(C(F)(F)F)c2)nnc2c1CCCC2` (stereo not drawn) [I-118], the pest or weed control at 500 ppm (in assay [1]; in the assay with Pyrenophora teres; in the assay on Botrytis cinerea) was 90 to 100% throughout.

Turning to `O=C(NCC(F)c1ccc(Cl)cc1Cl)c1c(Oc2cccc(C3CC3)c2)nnc2c1CCCC2` (stereo not drawn) [I-119, 3-(3-cyclopropylphenoxy)-N-[2-(2,4-dichlorophenyl)-2-fluoro-ethyl]-5,6,7,8-tetrahydrocinnoline-4-carboxamide], the pest or weed control at 500 ppm (in assay [1]; in the assay on Pyrenophora teres; in the assay with Botrytis cinerea) was 90 to 100% throughout.

Consider `Cc1ccc(C(F)(F)CNC(=O)c2c(Oc3cccc(Cl)c3)nnc3c2CCCC3)c(C)c1` [I-121], for which the pest or weed control at 500 ppm (in assay [1]; in the assay with Pyrenophora teres; in the assay with Botrytis cinerea) was 90 to 100% in each case.

For `Cc1ccc(C(F)CNC(=O)c2c(Oc3cccc(C(F)(F)F)c3)nnc3c2COCC3)c(C)c1` (stereo not drawn) [I-123], the pest or weed control at 500 ppm (in assay [1]; in the assay with Pyrenophora teres; in the assay on Botrytis cinerea) was 90 to 100% in each case.

For the compound `Cc1ccc(C(F)(F)CNC(=O)c2c(Oc3cccc(C(F)(F)F)c3)nnc3c2COCC3)c(Cl)c1` [I-124], the pest or weed control at 500 ppm lay within 90 to 100% in assay [1], 80 to 89% in the assay on Pyrenophora teres and 90 to 100% in the assay on Botrytis cinerea.

With `O=C(NCC(F)c1ccc(Cl)cc1Cl)c1c(Oc2cccc(C(F)(F)F)c2)nnc2c1COCC2` (stereo not drawn) [I-126], the pest or weed control at 500 ppm lay within 90 to 100% in assay [1], 70 to 79% with Pyrenophora teres and 90 to 100% in the assay with Botrytis cinerea.

As to `Cc1cc(Br)ccc1C(F)(F)CNC(=O)c1c(Oc2cccc(C(F)(F)F)c2)nnc2c1COCC2` [I-127], the pest or weed control at 500 ppm is 90 to 100% in assay [1], 70 to 79% in the assay on Pyrenophora teres and 90 to 100% in the assay on Botrytis cinerea.

For the compound `Cc1ccc(C(F)(F)CNC(=O)c2c(Oc3cccc(Br)c3F)nnc3c2CCCC3)c(C)c1` [I-128], the pest or weed control at 500 ppm (in assay [1]; with Pyrenophora teres; in the assay with Botrytis cinerea) was 90 to 100% each time.

With `Cc1ccc(C(F)(F)CNC(=O)c2c(Oc3cccc(C(F)F)c3)nnc3c2CCCC3)c(C)c1` [I-129], the pest or weed control at 500 ppm (in assay [1]; in the assay with Pyrenophora teres; in the assay with Botrytis cinerea) was 90 to 100% in each case.

For `Cc1ccc(C(F)(F)CNC(=O)c2c(Oc3cccc(Cl)c3F)nnc3c2CCCC3)c(C)c1` [I-130], the pest or weed control at 500 ppm (in assay [1]; in the assay with Pyrenophora teres; in the assay with Botrytis cinerea) was 90 to 100% in each case.

Turning to `Cc1ccc(C(F)(F)CNC(=O)c2c(Oc3cccc(C4CC4)c3F)nnc3c2CCCC3)c(C)c1` [I-131], the pest or weed control at 500 ppm (in assay [1]; with Pyrenophora teres; with Botrytis cinerea) was 90 to 100% each time.

As for `Cc1ccc(C(F)(F)CNC(=O)c2c(Oc3cccc(C(F)(F)F)c3)nnc3c2CCC3)c(C)c1` [I-132], the pest or weed control at 500 ppm (in assay [1]; in the assay with Pyrenophora teres; in the assay with Botrytis cinerea) was 90 to 100% in each case.

With `Cc1ccc(C(F)(F)CNC(=O)c2c(Oc3cccc(Cl)c3F)nnc3c2CCC3)c(C)c1` [I-133], the pest or weed control at 500 ppm (in assay [1]; in the assay with Pyrenophora teres; in the assay on Botrytis cinerea) was 90 to 100% throughout.

`Cc1ccc(C(F)(F)CNC(=O)c2c(Oc3cccc(C4CC4)c3F)nnc3c2CCC3)c(C)c1` [I-134]: the values for the pest or weed control at 500 ppm (in assay [1]; in the assay on Pyrenophora teres; in the assay with Botrytis cinerea) were 90 to 100%, 80 to 89% and 90 to 100%, respectively.

On to `Cc1ccc(C(F)CNC(=O)c2c(Oc3cccc(Cl)c3F)nnc3c2CCCC3)c(C)c1` (stereo not drawn) [I-136], for which the pest or weed control at 500 ppm (in assay [1]; with Pyrenophora teres; in the assay with Botrytis cinerea) was 90 to 100% each time.

Consider `Cc1ccc(C(F)CNC(=O)c2c(Oc3cccc(C4CC4)c3F)nnc3c2CCCC3)c(C)c1` (stereo not drawn) [I-137], for which the pest or weed control at 500 ppm in assay [1] lay in the range of 90 to 100%; with Pyrenophora teres, 80 to 89%; with Botrytis cinerea it was 90 to 100%.

With `Cc1ccc(C(F)(F)CNC(=O)c2c(Oc3cccc(Cl)c3)nnc3c2CCCC3)c(Cl)c1` [I-139], the pest or weed control at 500 ppm in assay [1] fell in the range of 90 to 100%; in the assay on Pyrenophora teres, 80 to 89%; in the assay on Botrytis cinerea it was 90 to 100%.

With `Cc1ccc(C(F)(F)CNC(=O)c2c(Oc3cccc(Cl)c3F)nnc3c2CCCC3)c(Cl)c1` [I-140, 3-(3-chloro-2-fluoro-phenoxy)-N-[2-(2-chloro-4-methyl-phenyl)-2,2-difluoro-ethyl]-5,6,7,8-tetrahydrocinnoline-4-carboxamide], the pest or weed control at 500 ppm (in assay [1]; with Pyrenophora teres; with Botrytis cinerea) was 90 to 100% in each case.

Consider `Cc1ccc(C(F)(F)CNC(=O)c2c(Oc3cccc(C4CC4)c3F)nnc3c2CCCC3)c(Cl)c1` [I-141], for which the pest or weed control at 500 ppm (in assay [1]; in the assay on Pyrenophora teres; with Botrytis cinerea) was 90 to 100% each time.

As for `Cc1ccc(C(F)(F)CNC(=O)c2c(Oc3cccc(C(F)(F)F)c3)nnc3c2CCC3)c(Cl)c1` [I-142], the pest or weed control at 500 ppm (in assay [1]; with Pyrenophora teres; in the assay with Botrytis cinerea) was 90 to 100% each time.

Take `Cc1ccc(C(F)(F)CNC(=O)c2c(Oc3cccc(Cl)c3F)nnc3c2CCC3)c(Cl)c1` [I-143]: the pest or weed control at 500 ppm (in assay [1]; in the assay on Pyrenophora teres; with Botrytis cinerea) was 90 to 100% in each case.

With `Cc1ccc(C(F)(F)CNC(=O)c2c(Oc3cccc(C4CC4)c3F)nnc3c2CCC3)c(Cl)c1` [I-144], the values for the pest or weed control at 500 ppm (in assay [1]; with Pyrenophora teres; with Botrytis cinerea) were 90 to 100%, 80 to 89% and 90 to 100%, respectively.

Take `Cc1cc(Cl)ccc1C(F)(F)CNC(=O)c1c(Oc2cccc(C(F)(F)F)c2)nnc2c1CCCC2` [I-145]: the pest or weed control at 500 ppm (in assay [1]; in the assay with Pyrenophora teres; in the assay on Botrytis cinerea) was 90 to 100% throughout.

With `Cc1cc(Cl)ccc1C(F)(F)CNC(=O)c1c(Oc2cccc(Cl)c2)nnc2c1CCCC2` [I-146], the pest or weed control at 500 ppm in assay [1] is 90 to 100%; in the assay on Pyrenophora teres it was 80 to 89%; in the assay with Botrytis cinerea, 90 to 100%.

For `Cc1cc(Cl)ccc1C(F)(F)CNC(=O)c1c(Oc2cccc(Cl)c2F)nnc2c1CCC2` [I-148], the pest or weed control at 500 ppm (in assay [1]; in the assay on Pyrenophora teres; in the assay with Botrytis cinerea) was 90 to 100% in each case.

Regarding `O=C(NCC(F)c1ccc(Cl)cc1Cl)c1c(Oc2cccc(Cl)c2F)nnc2c1CCCC2` (stereo not drawn) [I-149], the pest or weed control at 500 ppm (in assay [1]; with Pyrenophora teres; with Botrytis cinerea) was 90 to 100% in each case.

On to `Cc1cc(Br)ccc1C(F)(F)CNC(=O)c1c(Oc2cccc(C(F)F)c2)nnc2c1CCCC2` [I-150], for which the pest or weed control at 500 ppm (in assay [1]; in the assay with Pyrenophora teres; in the assay on Botrytis cinerea) was 90 to 100% throughout.

As to `Cc1cc(Br)ccc1C(F)(F)CNC(=O)c1c(Oc2cccc(Cl)c2)nnc2c1CCCC2` [I-151], the pest or weed control at 500 ppm lay in the range of 90 to 100% in assay [1], 80 to 89% in the assay on Pyrenophora teres and 90 to 100% with Botrytis cinerea.

With `Cc1cc(Br)ccc1C(F)(F)CNC(=O)c1c(Oc2cccc(Cl)c2F)nnc2c1CCCC2` [I-152], the pest or weed control at 500 ppm lay in the range of 90 to 100% in assay [1], 80 to 89% in the assay with Pyrenophora teres and 90 to 100% in the assay with Botrytis cinerea.

Turning to `O=C(NCC(F)c1ccc(Cl)cc1Cl)c1c(Oc2cccc(C(F)(F)F)c2)nnc2c1CCC2` (stereo not drawn) [I-186], the pest or weed control at 500 ppm (in assay [1]; with Pyrenophora teres; with Botrytis cinerea) was 90 to 100% throughout.

The values are drawn from patent publication US20230192617A1, “AZABICYCLIC(THIO)AMIDES AS FUNGICIDAL COMPOUNDS” (Bayer CropScience Aktiengesellschaft, priority 2020, published 2023).
